# From PubChem BioAssay (NCI)
# Values joined by “and” are separate entries in the source; they are usually repeats but may differ in a detail not shown here. Identical values can stand only once.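 Compound exposure: 48 hours, 5 concentrations, 96-well plates. The concentration for 50% growth inhibition is given as GI50. The concentration for full growth arrest is given as TGI.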
# What was measured:
# Assay in all cases: DTP human tumour cell line panel, 48 h
# SK-MEL-2 melanoma = system: SK-MEL-2 melanoma
# OVCAR-3 ovarian = system: OVCAR-3 ovarian
# SK-MEL-5 melanoma = system: SK-MEL-5 melanoma
# SW-620 colon = system: SW-620 colon
# NCI-H522 lung = system: NCI-H522 lung
# MCF7 breast = system: MCF7 breast
# COLO 205 colon = system: COLO 205 colon
# SR leukemia = system: SR leukemia
# LOX IMVI melanoma = system: LOX IMVI melanoma
# TK-10 renal = system: TK-10 renal
Compound,GI50 (SK-MEL-2 melanoma),TGI (SK-MEL-2 melanoma),GI50 (OVCAR-3 ovarian),TGI (OVCAR-3 ovarian),GI50 (SK-MEL-5 melanoma),TGI (SK-MEL-5 melanoma),GI50 (SW-620 colon),TGI (SW-620 colon),GI50 (NCI-H522 lung),TGI (NCI-H522 lung),GI50 (MCF7 breast),TGI (MCF7 breast),GI50 (COLO 205 colon),TGI (COLO 205 colon),GI50 (SR leukemia),TGI (SR leukemia),GI50 (LOX IMVI melanoma),TGI (LOX IMVI melanoma),GI50 (TK-10 renal),TGI (TK-10 renal)
CCOC(=O)c1c(-c2ccccc2)n2c(=O)cc(C)c3c(O)c(O)cc1c32,4.09 µM,41.3 µM,2.38 µM,17 µM,4.44 µM,16.9 µM,4.74 µM,18.5 µM,3.25 µM,11.6 µM,3.28 µM,13.4 µM,11 µM,28.2 µM,3.59 µM,17.5 µM,4.96 µM,22.8 µM,22.7 µM,> 100 µM
O=C(Cc1cc(O)ccc1O)NO,> 100 µM,> 100 µM,16.9 µM,33.3 µM,> 100 µM,> 100 µM,25.1 µM,54.1 µM,91.7 µM,> 100 µM,16.5 µM,34.9 µM,18.6 µM,36.3 µM,20.5 µM,52.6 µM,28.5 µM,80.9 µM,57.6 µM,> 100 µM
O=C(O)CN1C(=O)OC(c2ccccc2)C1=O (stereo not drawn),–,> 100 µM,–,> 100 µM,–,> 100 µM,–,> 100 µM,–,> 100 µM,–,> 100 µM,–,> 100 µM,–,> 100 µM,–,> 100 µM,–,> 100 µM
c1cc[n+](Cc2c3ccccc3cc3c2ccc2ccccc23)cc1,2.14 µM,4.69 µM,2.6 µM,11.4 µM,1.77 µM,3.89 µM,6.16 µM,21.9 µM,1.68 µM,5.31 µM,3.25 µM,13.2 µM,1.88 µM,5.24 µM,2.64 µM,11.6 µM,3.72 µM,15.8 µM,8.2 µM,28.2 µM
COc1ccc(OC)c(C2=C(c3cn(C)c4ccccc34)C(=O)NC2=O)c1,> 25 µM,> 25 µM,> 25 µM,> 25 µM,> 25 µM,> 25 µM,20.8 µM,> 25 µM,> 25 µM,> 25 µM,> 20.7 µM,> 25 µM,> 25 µM,> 25 µM,16.1 µM,> 25 µM,> 25 µM,> 25 µM,> 25 µM,> 25 µM
COc1cccc2nc(Nc3cccc(NC(=O)c4ccc(N5CCN(C)CC5)c(C(F)(F)F)c4)c3)ccc12,1.36 µM,3.65 µM,1.21 µM,3.07 µM,1.52 µM,5.03 µM,0.968 µM,2.08 µM,1.04 µM,2 µM,0.851 µM,1.9 µM,0.909 µM,1.83 µM,1.13 µM,3.45 µM,0.874 µM,1.57 µM,2.01 µM,6.62 µM
Cc1ccc2ncnc(N(C)C3CCCCC3)c2c1,37.5 µM,> 100 µM,23.3 µM,54.5 µM,> 100 µM,> 100 µM,–,–,39 µM,> 100 µM,41.3 µM,> 100 µM,35.1 µM,> 100 µM,17.4 µM,44.9 µM,21.7 µM,68.3 µM,36 µM,> 100 µM
C=C(C(=O)c1ccccc1)C(NC(C)(C)C)c1ccccc1 (stereo not drawn),1.88 µM,4.78 µM,1.3 µM,3.24 µM,1.45 µM,2.82 µM,1.14 µM,3.44 µM,0.308 µM,1.53 µM,1.06 µM,8.21 µM,1.29 µM,2.81 µM,1.56 µM,8.41 µM,1.46 µM,2.97 µM,1.02 µM,2.25 µM
CC(=O)OC1C(O)C(C)OC(OC2C(OC(=O)C3CCC4C(C3)OC3(CC(OC(=O)/C=C/c5ccccc5)C(C)CO3)C43CO3)OC(C)C(O)C2OC(C)=O)C1O (stereo not drawn),–,0.0189 µM,–,0.0451 µM,–,0.0155 µM,–,0.184 µM,–,0.0156 µM,–,0.0825 µM,–,0.0181 µM,–,> 2.5 µM,–,0.0213 µM,–,0.225 µM
CCN1CCN(Cc2ccc(NC(=O)Nc3nc(-c4cc(OC)c(OC)c(OC)c4)cs3)cc2C(F)(F)F)CC1,1.9 µM,3.61 µM,2.28 µM,6.89 µM,1.67 µM,3.04 µM,1.62 µM,3.31 µM,1.65 µM,3.13 µM,1.44 µM,3.02 µM,1.58 µM,3.2 µM,1.2 µM,3.08 µM,2.18 µM,7.14 µM,1.95 µM,4.25 µM
COc1ccc2[nH]c(C(=O)OCc3ccc4c(Br)cc(Br)c(O)c4n3)cc2c1,1.55 µM,3.12 µM,0.447 µM,1.56 µM,1.61 µM,2.97 µM,0.364 µM,1.41 µM,0.395 µM,1.82 µM,0.442 µM,2.05 µM,0.442 µM,1.92 µM,0.293 µM,2.04 µM,0.188 µM,0.453 µM,1.39 µM,2.71 µM
CCOc1cc(Cl)c(C(C)NC(=O)c2cccc(OC)c2)cc1OCC (stereo not drawn),4.67 µM,> 100 µM,4.19 µM,29.4 µM,7.39 µM,24.6 µM,4 µM,> 100 µM,5.04 µM,39.7 µM,4.6 µM,> 100 µM,7.17 µM,47.3 µM,3.92 µM,> 100 µM,14.2 µM,> 100 µM,28.6 µM,> 100 µM
CN1C(=O)C(N=Nc2ccc([N+](=O)[O-])cc2)SC1=S (stereo not drawn),8.98 µM and 5.29 µM,37.8 µM and 42.5 µM,2.7 µM and 10.9 µM,12.9 µM and 71.9 µM,7.77 µM and 11.1 µM,28.9 µM and 27 µM,2.53 µM and 8.17 µM,> 100 µM,4.52 µM and 3 µM,52.5 µM and 47.9 µM,6.1 µM and 16.6 µM,> 100 µM,4 µM and 10 µM,18 µM and 23 µM,2.66 µM and 4.47 µM,> 100 µM,2.56 µM and 9.05 µM,48.5 µM and 98.4 µM,12.6 µM and 5.87 µM,79.7 µM and > 100 µM
